{"source": "patent US12427192B2", "about": "“Water soluble adjuvant and composition containing same” (Sumitomo Pharma Co., Ltd., priority 2019, dated 2025)", "key": {"[1]": {"test_system": "HLA-A*02:01 transgenic mouse", "assay": "Test 17: in vivo adjuvant activity, liposome formulation 2, IFNγ ELISPOT", "conditions": "added to cocktail vaccine 1 (liposome formulation 2); 0.4 nmol per body, twice; FIG. 20 and 21", "protocol": "Evaluation of In Vivo Adjuvant Activity in HLA-A*02:01 Transgenic Mouse\nThe in vivo adjuvant activity of the compound of Example 1 was evaluated in the following procedure.\nTo a vaccine (liposome formulation 2) comprising Compound of formula 4 prepared in Reference example 8 and Peptide SEQ ID No. 3 prepared in Reference example 3 (hereinafter, referred to as “cocktail vaccine 1”) was added the compound prepared in Example 1 to prepare a vaccine. The vaccine was administered to a HLA-A*02:01 transgenic mouse, and the adjuvant activity of the vaccine was evaluated by the method of testing antigen-specific CTL induction.\nFor example, the above liposome formulation 2 was prepared as follows. 42.66 mg of sphingomyelin and 15.47 mg of cholesterol were dissolved in t-butyl alcohol, and the mixture was lyophilized. […]\nCocktail vaccine 1 was injected to mice intradermally at the tail base area in an amount for administering 500 μg of Compound of formula 4 per body and 375 μg of Peptide SEQ ID No. 3 per body. […] Then, after removal of the supernatant from the wells, stained spots on the ELISPOT plate were counted."}, "[2]": {"test_system": "HLA-A*02:01 transgenic mouse", "assay": "Test 4: in vivo adjuvant activity, cocktail vaccine a, IFNγ ELISPOT", "protocol": "Evaluation of in vivo adjuvant activity in HLA-A*02:01 transgenic mouse\nThe in vivo adjuvant activity of the compound of Example 1 and the compound of Reference example 12 was evaluated in the following procedure. To a cocktail vaccine comprising Compound of formula 4 prepared in Reference example 8 and Peptide SEQ ID No. 3 prepared in Reference example 3 with a preliminarily-emulsified composition (hereinafter, referred to as “cocktail vaccine a”) was added the compound prepared in Example 1 or the compound prepared in Reference example 12 respectively to prepare each vaccine. The vaccine was administered to a HLA-A*02:01 transgenic mouse, and the adjuvant activity of each vaccine was evaluated by the method of testing antigen-specific CTL induction.\nThe RMFPNAPYL (SEQ ID No. 1) in Compound of formula 4 and the VLDFAPPGA (SEQ ID No. 4) in Peptide SEQ ID No. 3 correspond to antigen peptides derived from an HLA-A*02:01-restricted WT1 protein.\nHLA-A*02:01 transgenic mouse (C57BL/6CrHLA-A2.1DR1) lacks mouse MHC, and instead expresses a chimeric HLA of a human MHC (HLA-A*02:01) and a mouse MHC (H-2D^b), and HLA-DRB1*01:01. […]\nThe character for inducing CTLs specific to the antigen peptide (SEQ ID No. 1 or SEQ ID No. 4) by cocktail vaccine a was evaluated by measuring whether IFNγ can be produced upon stimulation of splenocytes from the mouse with the corresponding peptide. […]"}}}
{"smiles": "CCCCCNc1nc(N)nc(C)c1Cc1ccc(CN(C)CCOCCOCCOCCOCCO)cc1OC", "note": "[Example 1, 1-(4-{[2-amino-4-methyl-6-(pentylamino)pyrimidin-5-yl]methyl}-3-methoxyphenyl)-2-methyl-5,8,11,14-tetraoxa-2-azahexadecan-16-ol·trifluoroacetate]", "values": [{"measurement": "CTL counts responsive to Peptide SEQ ID No. 1 or SEQ ID No. 4 compared with adding no compound", "setting": "[1]", "value": "more"}, {"measurement": "CTL counts responsive to Peptide of SEQ ID No. 1 or SEQ ID No. 4 compared with Reference example 12", "setting": "[2]; added to cocktail vaccine a, 32.5 ng Example 1 vs 22.5 ng Reference example 12 per body", "value": "more"}, {"measurement": "induced CTL count on adding the compound to the vaccine", "setting": "[2]; cocktail vaccine a, 32.5 ng Example 1 per body", "value": "increases"}]}
